Where two headings read alike, the source gives them in different places.
Experiments:
c-Kit(V654A) = c-Kit(V654A) (Homo sapiens, UniProt P10721, V654A); test: c-Kit(V654A) assay; format: biochemical
How it was run: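 Radiometric filter-binding read-out: after 3% phosphoric acid stop, peptide-incorporated 33P on filtermat scintillation-counted. Enzyme: human c-Kit V654A, residues 544–end, N-terminal GST fusion.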

[1] = target: mutant cKIT (560-576 and V654A) in GIST430/654 cell line (Homo sapiens (Human), UniProt P10721, DEL560-576/V654A); test: Cellular testing of cKIT mutant inhibitors: phospho-Y307-cKIT Luminex assay in GIST430/654 cells; format: cell-based; conditions: read-out: GIST 430/654 IC50
mutant cKIT (560-576 and V654A) in GIST430/654 cell line, sequence (P10721 other isoform, or with tags, fused parts or gaps V654A/del 1-25/del 560-576 limits assumed): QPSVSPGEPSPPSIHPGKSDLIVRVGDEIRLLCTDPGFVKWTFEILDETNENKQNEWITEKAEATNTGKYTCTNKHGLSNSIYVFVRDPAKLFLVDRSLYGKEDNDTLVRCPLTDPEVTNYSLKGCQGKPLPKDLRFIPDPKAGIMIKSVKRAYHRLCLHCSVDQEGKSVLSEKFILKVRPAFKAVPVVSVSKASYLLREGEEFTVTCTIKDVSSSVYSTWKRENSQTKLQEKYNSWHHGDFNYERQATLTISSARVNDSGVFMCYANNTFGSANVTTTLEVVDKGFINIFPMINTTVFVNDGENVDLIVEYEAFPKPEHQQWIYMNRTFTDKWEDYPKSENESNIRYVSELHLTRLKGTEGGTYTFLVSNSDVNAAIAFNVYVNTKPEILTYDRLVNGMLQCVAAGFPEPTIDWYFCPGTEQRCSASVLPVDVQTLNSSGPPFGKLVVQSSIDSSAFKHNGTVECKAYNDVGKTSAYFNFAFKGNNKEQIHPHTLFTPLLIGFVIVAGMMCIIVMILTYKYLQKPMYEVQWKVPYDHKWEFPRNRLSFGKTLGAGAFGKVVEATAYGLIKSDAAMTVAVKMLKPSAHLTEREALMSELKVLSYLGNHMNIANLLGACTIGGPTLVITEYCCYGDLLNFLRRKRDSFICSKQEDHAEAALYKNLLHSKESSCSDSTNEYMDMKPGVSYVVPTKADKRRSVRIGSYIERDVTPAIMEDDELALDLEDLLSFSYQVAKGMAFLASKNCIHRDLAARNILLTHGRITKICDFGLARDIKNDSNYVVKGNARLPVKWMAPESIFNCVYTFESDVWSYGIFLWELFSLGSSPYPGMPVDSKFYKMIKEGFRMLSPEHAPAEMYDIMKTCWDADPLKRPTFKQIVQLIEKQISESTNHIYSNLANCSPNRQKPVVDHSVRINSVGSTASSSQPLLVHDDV
How it was run: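 GIST430/654 cells carrying constitutively active cKIT (Δ560-576/V654A) were grown with 100 nM imatinib, then treated with serially diluted compound for 45 min. Lysates were captured on anti-total-cKIT Luminex beads overnight at 4 °C and probed for phospho-Y307-cKIT. IC50 was fitted from percent of 0.3% DMSO control.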

[2] = Table 1, cKIT autophosphorylation, compounds 45 min
[3] = Table 2, corresponding triazole derivatives

Structure (SMILES) | IC50 (c-Kit(V654A); Table 1, 200 μM ATP) [nM] | IC50 [1, 2] [nM] | IC50 (c-Kit(V654A); [3]) [nM] | IC50 [1, 3] [nM]
COCCOc1cc2[nH]nc(-c3cc(-c4ccc(N5CCS(=O)(=O)CC5)nc4)no3)c2cc1F [A131, 4-(5-{5-[5-fluoro-6-(2-methoxyethoxy)-1H-indazol-3-yl]-1,2-oxazol-3-yl}pyridin-2-yl)-1lambda6-thiomorpholine-1,1-dione] | 3 | 65 |  | 
COCCOc1cc2[nH]nc(-c3cc(-c4ccc(C(=O)N5CCS(=O)(=O)CC5)cc4)no3)c2cc1F [A30, 4-(4-{5-[5-fluoro-6-(2-methoxyethoxy)-1H-indazol-3-yl]-1,2-oxazol-3-yl}benzoyl)-1lambda6-thiomorpholine-1,1-dione] | 0.73 | 56 |  | 
COCCOc1cc2[nH]nc(-c3cc(-c4ccc(C(=O)N5CC(c6ccncc6)C5)cc4)no3)c2cc1F [A120, 5-fluoro-6-(2-methoxyethoxy)-3-(3-{4-[3-(pyridin-4-yl)azetidine-1-carbonyl]phenyl}-1,2-oxazol-5-yl)-1H-indazole] | 0.64 | 24 |  | 
COCCOc1cc2[nH]nc(-c3cc(-c4ccc(C(=O)N5C[C@@H]6CS(=O)(=O)C[C@@H]6C5)cc4)no3)c2cc1F [A217, (cis)-5-(4-{5-[5-fluoro-6-(2-methoxyethoxy)-1H-indazol-3-yl]-1,2-oxazol-3-yl}benzoyl)-hexahydro-1H-2lambda6-thieno[3,4-c]pyrrole-2,2-dione] | 0.32 | 43 |  | 
COCCOc1cc2[nH]nc(-c3cc(-c4ccc(C(=O)N5CC(c6ccnc(C)n6)C5)cc4)no3)c2cc1F [A173, 5-fluoro-6-(2-methoxyethoxy)-3-(3-{4-[3-(2-methylpyrimidin-4-yl)azetidine-1-carbonyl]phenyl}-1,2-oxazol-5-yl)-1H-indazole] | 1.1 | 30 |  | 
COCCOc1cc2[nH]nc(-c3cc(-c4ccc(C(=O)N5CCNCC5)cc4)no3)c2cc1F [A46, 5-fluoro-6-(2-methoxyethoxy)-3-{3-[4-(piperazine-1-carbonyl)phenyl]-1,2-oxazol-5-yl}-1H-indazole] | 0.96 | 58 |  | 
COCCOc1cc2[nH]nc(-c3cc(-c4cccc(C(=O)N(C)C)c4)no3)c2cc1F [A135, 3-{5-[5-fluoro-6-(2-methoxy-ethoxy)-1H-indazol-3-yl]-isoxazol-3-yl}-N,N-dimethyl-benzamide] | 4.9 | 340 |  | 
COCCOc1cc2[nH]nc(-c3cc(-c4ccc(N5CCC(O)CC5)cc4)no3)c2cc1F [A128, 1-(4-{5-[5-fluoro-6-(2-methoxyethoxy)-1H-indazol-3-yl]-1,2-oxazol-3-yl}phenyl)piperidin-4-ol] | 0.79 | 100 |  | 
COCCOc1cc2[nH]nc(-c3cc(-c4ccc(OCCN5CCS(=O)(=O)CC5)cc4)no3)c2cc1F [A132, 4-[2-(4-{5-[5-fluoro-6-(2-methoxyethoxy)-1H-indazol-3-yl]-1,2-oxazol-3-yl}phenoxy)ethyl]-1lambda6-thiomorpholine-1,1-dione] | 1.6 | 93 |  | 
COCCOc1cc2[nH]nc(-c3cc(-c4ccc(C(=O)N(C)C)cc4)no3)c2cc1F [A20, 4-{5-[5-fluoro-6-(2-methoxyethoxy)-1H-indazol-3-yl]-1,2-oxazol-3-yl}-N,N-dimethylbenzamide] | 1.7 | 48 |  | 
COCCOc1cc2[nH]nc(-c3cc(-c4ccc(C(=O)N5CC[C@H]5C(C)(C)O)cc4)on3)c2cc1F [A148, (4-{3-[5-fluoro-6-(2-methoxy-ethoxy)-1H-indazol-3-yl]-isoxazol-5-yl}-phenyl)-[(S)-2-(1-hydroxy-1-methyl-ethyl)-azetidin-1-yl]-methanone] | 1.8 | 70 |  | 
COCCOc1cc2[nH]nc(-c3cc(-c4ccc(N5CC[C@H]6[C@@H]5CCN6C)cc4)no3)c2cc1F (relative stereo) [A125, 3-(3-{4-[(cis)-4-methyl-octahydropyrrolo[3,2-b]pyrrol-1-yl]phenyl}-1,2-oxazol-5-yl)-5-fluoro-6-(2-methoxyethoxy)-1H-indazole] | 1.9 | 230 |  | 
COCCOc1cc2[nH]nc(-c3cc(-c4ccc(C(=O)N5CC6(COC6)C5)cc4)no3)c2cc1F [A74, 5-fluoro-6-(2-methoxyethoxy)-3-[3-(4-{2-oxa-6-azaspiro[3.3]heptane-6-carbonyl}phenyl)-1,2-oxazol-5-yl]-1H-indazole] | 1.3 | 52 |  | 
COCCOc1cc2[nH]nc(-c3cc(-c4ccc(C(=O)N5CCN([C@H]6CCOC6)CC5)cc4)no3)c2cc1F [A186, 5-fluoro-6-(2-methoxyethoxy)-3-[3-(4-{4-[(3S)-oxolan-3-yl]piperazine-1-carbonyl}phenyl)-1,2-oxazol-5-yl]-1H-indazole] | 1.1 | 48 |  | 
COCCNC(=O)c1ccc2c(-c3cc(-c4ccc(C(=O)N(C)C)cc4)no3)n[nH]c2c1 [A25, 3-{3-[4-(dimethylcarbamoyl)phenyl]-1,2-oxazol-5-yl}-N-(2-methoxyethyl)-1H-indazole-6-carboxamide] | 30 | 5700 |  | 
COCCOc1cc2[nH]nc(-c3cc(-c4ccc(C(=O)NCc5nc6ccccc6[nH]5)cc4)no3)c2cc1F [A156, N-[(1H-1,3-benzodiazol-2-yl)methyl]-4-{5-[5-fluoro-6-(2-methoxyethoxy)-1H-indazol-3-yl]-1,2-oxazol-3-yl}benzamide] | 5.2 | 350 |  | 
COCCOc1cc2[nH]nc(-c3cc(-c4ccc(C(=O)N5CC(c6cncnc6)C5)cc4)no3)c2cc1F [A212, 5-fluoro-6-(2-methoxyethoxy)-3-(3-{4-[3-(pyrimidin-5-yl)azetidine-1-carbonyl]phenyl}-1,2-oxazol-5-yl)-1H-indazole] | 0.59 | 41 |  | 
COCCOc1cc2[nH]nc(-c3cc(-c4ccc(C(=O)N5CC6(CCO6)C5)cc4)no3)c2cc1F [A79, 5-fluoro-6-(2-methoxyethoxy)-3-[3-(4-{1-oxa-6-azaspiro[3.3]heptane-6-carbonyl}phenyl)-1,2-oxazol-5-yl]-1H-indazole] | 1.1 | 170 |  | 
COCCOc1cc2[nH]nc(-c3cc(-c4ccc(C(=O)N5CCC[C@@H]5CO)cc4)no3)c2cc1F [A52, [(2R)-1-(4-{5-[5-fluoro-6-(2-methoxyethoxy)-1H-indazol-3-yl]-1,2-oxazol-3-yl}benzoyl)pyrrolidin-2-yl]methanol] | 0.82 | 55 |  | 
COCCOc1cc2[nH]nc(-c3cc(-c4ccc(C(=O)NCC(C)(C)N5CCOCC5)cc4)no3)c2cc1F [A164, 4-{5-[5-fluoro-6-(2-methoxyethoxy)-1H-indazol-3-yl]-1,2-oxazol-3-yl}-N-[2-methyl-2-(morpholin-4-yl)propyl]benzamide] | 1.5 | 130 |  | 
COCCOc1cc2[nH]nc(-c3cc(-c4ccc(C(=O)N5C6CC5CS(=O)(=O)C6)cc4)no3)c2cc1F [A108, 6-(4-{5-[5-fluoro-6-(2-methoxyethoxy)-1H-indazol-3-yl]-1,2-oxazol-3-yl}benzoyl)-3lambda6-thia-6-azabicyclo[3.1.1]heptane-3,3-dione] | 0.81 | 56 |  | 
COCCOc1cc2[nH]nc(-c3cc(-c4ccc(C(=O)N5C[C@H]6COC[C@H]6C5)cc4)no3)c2cc1F [A202, 3-(3-{4-[(cis)-hexahydro-1H-furo[3,4-c]pyrrole-5-carbonyl]phenyl}-1,2-oxazol-5-yl)-5-fluoro-6-(2-methoxyethoxy)-1H-indazole] | 1.1 | 19 |  | 
COCCOc1cc2[nH]nc(-c3cc(-c4ccc(C(=O)N5CCN(C)C[C@@H]5C)cc4)on3)c2cc1Cl [A10, 5-chloro-3-(5-{4-[(2S)-2,4-dimethylpiperazine-1-carbonyl]phenyl}-1,2-oxazol-3-yl)-6-(2-methoxyethoxy)-1H-indazole] | 1.6 | 180 |  | 
COCCOc1cc2[nH]nc(-c3cc(-c4nc(C(=O)N(C)C)cs4)no3)c2cc1F [A93, 2-{5-[5-fluoro-6-(2-methoxyethoxy)-1H-indazol-3-yl]-1,2-oxazol-3-yl}-N,N-dimethyl-1,3-thiazole-4-carboxamide] | 53 | 390 |  | 
COCCOc1cc2[nH]nc(-c3cc(-c4ccc(NC(C)=O)cc4)no3)c2cc1Cl [A17, N-(4-{5-[5-chloro-6-(2-methoxyethoxy)-1H-indazol-3-yl]-1,2-oxazol-3-yl}phenyl)acetamide] | 5.3 | 130 |  | 
CC(C)(O)[C@@H]1CCCN1C(=O)c1ccc(-c2cc(-c3n[nH]c4cc(Br)ccc34)on2)cc1 [A4, {4-[5-(6-bromo-1H-indazol-3-yl)-isoxazol-3-yl]-phenyl}-[(S)-2-(1-hydroxy-1-methyl-ethyl)-pyrrolidin-1-yl]-methanone] | 13 | 330 |  | 
COCCOc1cc2[nH]nc(-c3cc(-c4ccc(C(=O)N(C)CCS(C)(=O)=O)cc4)no3)c2cc1F [A150, 4-{5-[5-fluoro-6-(2-methoxyethoxy)-1H-indazol-3-yl]-1,2-oxazol-3-yl}-N-(2-methanesulfonylethyl)-N-methylbenzamide] | 1.7 | 110 |  | 
COCCOc1cc2[nH]nc(-c3cc(-c4ccc(C(=O)N5C[C@H]6COCC[C@H]6C5)cc4)no3)c2cc1F (relative stereo) [A214, 3-(3-{4-[(cis)-octahydropyrano[3,4-c]pyrrole-2-carbonyl]phenyl}-1,2-oxazol-5-yl)-5-fluoro-6-(2-methoxyethoxy)-1H-indazole] | 0.44 | 37 |  | 
COCCOc1ccc2c(-c3cn(-c4ccc(C(=O)N5CCN(C)C[C@@H]5C)cc4)nn3)n[nH]c2c1 [reference compound] |  |  | 6.1 | 320
